Measured values published in patent publication US20210161783A1, “USE OF SPECIFIC BENZYLIDENE MALONATES FOR PROTECTING THE SKIN FROM CHEMICALLY INDUCED STRESS” (MERCK PATENT GMBH, priority 2018, published 2021).

Assays:
[1] = tested on: epidermis of living human skin explants; test: Ex-vivo study on living human skin explants: histological investigation (Masson's trichrome staining); type: cell-based; settings: for Epidermal morphological change compared with the untreated sample: explants treated with substance and the irritant, day 4, Masson staining
Description: (§1) An ex-vivo study was carried out on skin explants from a person […] (P1922-AB54). The explants are kept in a functioning state in a BEM culture medium (explants medium from BIO-EC) at 37° C. in a moist atmosphere containing 5% of CO2. 4 explants are used in each case in an experimental series of a substance, the control or the reference.
(§2) Compounds A and B to be investigated are employed in 0.5% solution in ethanol. The influence of ethanol on the explant is investigated in parallel (compound C=ethanol). The reference employed is the gel from DECLÉOR with the article number 56300 (gel D; decléor gelée hydratante anti-pollution), which is known for its protection of the skin against chemicals, heavy metals and diesel particles. The control used is an untreated sample which only comes into contact with the culture medium.
(§3) The explants are treated once daily for 4 days (day 0=D0, day 1=D1, day 2=D2 and day 3=D3) with the solutions to be tested containing compound A and B as well as compound C and gel D (2 μl per explant corresponding to 2 mg/cm^2). On D3, the solutions to be tested and the reference are treated 4 hours before application of the irritant.
(§4) On D3, the explants are treated with the irritant containing the metals/heavy metals and diesel particles, as described above, where a paper disc with a diameter of 9 mm is soaked with 30 μl of the irritant. The irritant acts on the respective explant for 24 hours.
On day 4 (D4), three explants are collected for each of the compounds to be investigated. Each explant is divided, and one part is frozen at −80° C., the second half is fixed in a buffered formol solution (formaldehyde solution). The fourth explant remains frozen at −80° C.
The explants fixed for 24 hours are dehydrogenated and impregnated in paraffin. Areas with a thickness of 5 μm are then cut and investigated under the microscope (for example Leica DMLB or Olympus BX43). Corresponding images are produced, using the Masson staining method (Masson's trichrome staining, Goldner variant), a standard colouring method in histology. […]

[2] = tested on: malonic dialdehyde (MDA) production in living human skin explants; test: Ex-vivo study on living human skin explants: MDA investigation of the culture medium (TBAR, spectrofluorimetry); type: cell-based; settings: for MDA concentration in the culture medium of the explant treated with substance and the irritant (average) / MDA concentration in the culture medium of the explant treated without irritant, but with substance (average): 0.5% solution in ethanol (gel D as such), day 4; for MDA concentration in the culture medium of the explant treated with substance and the irritant (average): 2 mg/cm^2 once daily D0-D3, irritant (metals/heavy metals + 0.1% diesel particles PM2.5) 24 h, irritant only 143.6, untreated 98.3; for Average MDA concentration in the presence of substance attributable to the irritant alone: difference with irritant minus without irritant, irritant alone without substance 45.3; for Lower MDA production (change) versus irritant only: explants with substance and irritant, compared with explant treated only with irritant; for MDA concentration in the culture medium of the explant treated without irritant, but with substance (average): no irritant, once daily D0-D3, untreated 98.3; for Hindrance of MDA production standardised to the amount of MDA released only by the irritant: standardised to MDA attributable to irritant alone (45.3 nmol/l)
Description: as §1, §2, §3, §4
The culture medium of the treated explants is investigated for the compound MDA. MDA stands for malonic dialdehyde (propanedial) and is a known marker for oxidative stress, as described above.
The culture medium of each investigated explant is mixed with a salt medium (HBBS Medium Hank's Balanced Salts) and a TBAR solution and heated in a water bath at 80° C. for 15 minutes. The TBAR solution contains thiobarbituric acid, hydrochloric acid and trichloroacetic acid. Many substances which are unrelated to the lipoperoxidation react with the thiobarbituric acid, for example glucose. After cooling, malonic dialdehyde (MDA) is extracted with butanol in a liquid/liquid extraction, and the then investigated by spectrofluorimetry (excitation 515 nm, emission: 550 nm). The MDA concentration indicated below is quoted in nmol/l.
1. For interpretation of the results, it is taken into account that the culture medium of the untreated explants (without irritant and without compounds A, B, C and gel D) also contains MDA on day 4.
For analysis of the results, this amount of MDA present on average in the untreated explants is therefore subtracted from the values obtained for the explant samples in order to determine the influence of MDA production owing to the irritant.

interleukin 8 = settings: skin irritated by phorbol 12-myristate 13-acetate (PMA); cited from earlier work

Row | Structure (SMILES) | Epidermal morphological change compared with the untreated sample [1] | MDA concentration in the culture medium of the explant treated with substance and the irritant (average) [2] [nmol/L] | Average MDA concentration in the presence of substance attributable to the irritant alone [2] [nmol/L] | Lower MDA production (change) versus irritant only [2] [%] | MDA concentration in the culture medium of the explant treated without irritant, but with substance (average) [2] [nmol/L] | Hindrance of MDA production standardised to the amount of MDA released only by the irritant [2] [%] | Excretion of cytokines, in particular interleukin 8 (interleukin 8) | Worsening of the condition of the epidermis (score of detectable changes) ([1]; explants with substance and irritant, compared with untreated control and with compound A plus irritant)
1 | CCCCC(CC)COC(=O)C(=Cc1cc(OC)c(O)c(OC)c1)C(=O)OCC(CC)CCCC (centres unmarked) [compound A, di(2-ethylhexyl) 3,5-dimethoxy-4-hydroxybenzylidenemalonate] | no epidermal change | 129.0 | 34.3 | 10 | 94.7 | 24 | – | –
2 | COc1cc(C=C(C(=O)OC(C)C)C(=O)OC(C)C)ccc1O [compound B, diisopropyl 3-methoxy-4-hydroxybenzylidenemalonate] | an epidermal morphological change | 135.5 | 41.9 | 6 | 93.6 | 8 | reduces the excretion of cytokines | about 55%
